Measurements from patent US10689381B2 (priority 2017, dated 2020).
Like-named read-outs stand apart in the source and are kept apart here.

Columns and labels:
[1] = system: L1210; assay: cells; format: cell-based, mouse
Description: (§1) A population of cells (>1×10^6 cells/mL as determined with a hemocytometer) was diluted with Dulbecco's Modified Eagle Medium (DMEM, Gibco) containing 10% fetal bovine serum (FBS, Gibco) to give a final concentration of 30,000 cells/mL. To each well of a 96-well plate (Corning® Costar®) was added 100 μL of the cell media solution with a multichannel pipet.
(§2) The test compounds were then added to the plate as follows: test compounds were diluted in DMSO to a concentration of 1 mM. 10-Fold serial dilutions in DMSO were next performed on a separate 96-well plate. Fresh culture media (100 μL) was added to each well of cells resulting in 200 μL of medium per well followed by 2 μL of each test agent. Compounds were tested in duplicate (n=2-8 times) at six concentrations between 0-1000 nM or 0-10000 nM. Following the addition of compound, cultures were incubated for an additional 72 hours.
(§3) The plates were incubated at 37° C. for 5 minutes (L1210) or 15 min (HCT116 and HCT116/VM46).

[2] = system: HCT116; assay: cells; format: cell-based, human; settings: for IC50: read-out: IC50 HCT116; for potency relative to vinblastine (more potent): vinblastine-sensitive cell lines
Description: as §1, §2, §3

| SMILES | IC50 ([1]; Table 2) [nM] | IC50 ([2]; Table 2) [nM] | potency relative to vinblastine (more potent) [2] [fold] | IC50 ([1]; Table 3) [nM] | IC50 ([2]; Table 3) [nM] |
| --- | --- | --- | --- | --- | --- |
| CC[C@]1(NC(=O)c2ccc(OC(F)(F)F)c(OC)c2)C[C@H]2CN(CCc3c([nH]c4ccccc34)[C@@](C(=O)OC)(c3cc4c(cc3OC)N(C)[C@H]3[C@@](O)(C(=O)OC)[C@H](OC(C)=O)[C@]5(CC)C=CCN6CC[C@]43[C@@H]65)C2)C1 [Compound 83] | 1.3 | 1.7 |  |  |  |
| CCC1(NC(=O)c2ccc(SC)cc2)CC2CN(CCc3c([nH]c4ccccc34)C(C(=O)OC)(c3cc4c(cc3OC)N(C)C3C(O)(C(=O)OC)C(OC(C)=O)C5(CC)C=CCN6CCC43C65)C2)C1 (stereo not shown) [Compound 84] | 0.4 | 0.5 |  |  |  |
| CCC1(NC(=O)c2cccc(SC)c2)CC2CN(CCc3c([nH]c4ccccc34)C(C(=O)OC)(c3cc4c(cc3OC)N(C)C3C(O)(C(=O)OC)C(OC(C)=O)C5(CC)C=CCN6CCC43C65)C2)C1 (stereo not shown) [Compound 85] | 5.4 | 2.3 |  |  |  |
| CCSc1ccc(C(=O)NC2(CC)CC3CN(CCc4c([nH]c5ccccc45)C(C(=O)OC)(c4cc5c(cc4OC)N(C)C4C(O)(C(=O)OC)C(OC(C)=O)C6(CC)C=CCN7CCC54C76)C3)C2)cc1 (stereo not shown) [Compound 86] | 4.9 | 6.1 |  |  |  |
| CCC1(NC(=O)c2ccc(SC(C)C)cc2)CC2CN(CCc3c([nH]c4ccccc34)C(C(=O)OC)(c3cc4c(cc3OC)N(C)C3C(O)(C(=O)OC)C(OC(C)=O)C5(CC)C=CCN6CCC43C65)C2)C1 (stereo not shown) [Compound 87] | 4.3 | 4.6 |  |  |  |
| CCC1(NC(=O)c2ccc(S(=O)(=O)F)cc2)CC2CN(CCc3c([nH]c4ccccc34)C(C(=O)OC)(c3cc4c(cc3OC)N(C)C3C(O)(C(=O)OC)C(OC(C)=O)C5(CC)C=CCN6CCC43C65)C2)C1 (stereo not shown) [Compound 88] | 20 | 30 |  |  |  |
| CC[C@]1(NC(=O)c2cccc(S(=O)(=O)F)c2)C[C@H]2CN(CCc3c([nH]c4ccccc34)[C@@](C(=O)OC)(c3cc4c(cc3OC)N(C)[C@H]3[C@@](O)(C(=O)OC)[C@H](OC(C)=O)[C@]5(CC)C=CCN6CC[C@]43[C@@H]65)C2)C1 [Compound 89] | 40 | 30 |  |  |  |
| CC[C@]1(NC(=O)c2ccc(OC)c(F)c2)C[C@H]2CN(CCc3c([nH]c4ccccc34)[C@@](C(=O)OC)(c3cc4c(cc3OC)N(C)[C@H]3[C@@](O)(C(=O)OC)[C@H](OC(C)=O)[C@]5(CC)C=CCN6CC[C@]43[C@@H]65)C2)C1 [Compound 90] | 0.6 | 0.6 |  |  |  |
| CC[C@]1(NC(=O)c2ccc(OC)cc2F)C[C@H]2CN(CCc3c([nH]c4ccccc34)[C@@](C(=O)OC)(c3cc4c(cc3OC)N(C)[C@H]3[C@@](O)(C(=O)OC)[C@H](OC(C)=O)[C@]5(CC)C=CCN6CC[C@]43[C@@H]65)C2)C1 [Compound 91] | 6.2 | 6.4 |  |  |  |
| CC[C@]1(NC(=O)c2ccc(OC)c(Cl)c2)C[C@H]2CN(CCc3c([nH]c4ccccc34)[C@@](C(=O)OC)(c3cc4c(cc3OC)N(C)[C@H]3[C@@](O)(C(=O)OC)[C@H](OC(C)=O)[C@]5(CC)C=CCN6CC[C@]43[C@@H]65)C2)C1 [Compound 92] | 3.7 | 5.1 |  |  |  |
| CCC1(NC(=O)c2ccc(OC)c(Br)c2)CC2CN(CCc3c([nH]c4ccccc34)C(C(=O)OC)(c3cc4c(cc3OC)N(C)C3C(O)(C(=O)OC)C(OC(C)=O)C5(CC)C=CCN6CCC43C65)C2)C1 (stereo not shown) [Compound 93] | 5.1 | 6.2 |  |  |  |
| CCOc1ccc(C(=O)N[C@@]2(CC)C[C@H]3CN(CCc4c([nH]c5ccccc45)[C@@](C(=O)OC)(c4cc5c(cc4OC)N(C)[C@H]4[C@@](O)(C(=O)OC)[C@H](OC(C)=O)[C@]6(CC)C=CCN7CC[C@]54[C@@H]76)C3)C2)cc1Cl [Compound 94] | 4.2 | 6.1 |  |  |  |
| CCOc1ccc(C(=O)N[C@@]2(CC)C[C@H]3CN(CCc4c([nH]c5ccccc45)[C@@](C(=O)OC)(c4cc5c(cc4OC)N(C)[C@H]4[C@@](O)(C(=O)OC)[C@H](OC(C)=O)[C@]6(CC)C=CCN7CC[C@]54[C@@H]76)C3)C2)cc1Br [Compound 95] | 3.9 | 6.2 |  |  |  |
| CC[C@]1(NC(=O)c2cc(Cl)c(OC)c(Cl)c2)C[C@H]2CN(CCc3c([nH]c4ccccc34)[C@@](C(=O)OC)(c3cc4c(cc3OC)N(C)[C@H]3[C@@](O)(C(=O)OC)[C@H](OC(C)=O)[C@]5(CC)C=CCN6CC[C@]43[C@@H]65)C2)C1 [Compound 96] | 3.1 | 4.2 |  |  |  |
| CC[C@]1(NC(=O)c2ccc(OC)c(C)c2)C[C@H]2CN(CCc3c([nH]c4ccccc34)[C@@](C(=O)OC)(c3cc4c(cc3OC)N(C)[C@H]3[C@@](O)(C(=O)OC)[C@H](OC(C)=O)[C@]5(CC)C=CCN6CC[C@]43[C@@H]65)C2)C1 [Compound 97] | 0.6 | 0.7 | 10 |  |  |
| CCC1(NC(=O)c2ccc(C)c(OC)c2)CC2CN(CCc3c([nH]c4ccccc34)C(C(=O)OC)(c3cc4c(cc3OC)N(C)C3C(O)(C(=O)OC)C(OC(C)=O)C5(CC)C=CCN6CCC43C65)C2)C1 (stereo not shown) [Compound 98] | 4.2 | 3.3 |  |  |  |

| SMILES | IC50 ([1]; Table 2) [nM] | IC50 ([2]; Table 2) [nM] | potency relative to vinblastine (more potent) [2] [fold] | IC50 ([1]; Table 3) [nM] | IC50 ([2]; Table 3) [nM] |
| --- | --- | --- | --- | --- | --- |
| CCC1(NC(=O)c2cc(C)c(OC)c(C)c2)CC2CN(CCc3c([nH]c4ccccc34)C(C(=O)OC)(c3cc4c(cc3OC)N(C)C3C(O)(C(=O)OC)C(OC(C)=O)C5(CC)C=CCN6CCC43C65)C2)C1 (stereo not shown) [Compound 99] | 0.5 | 0.65 | 10 |  |  |
| CC[C@]1(NC(=O)c2cc(C)c(OCc3ccccc3)c(C)c2)C[C@H]2CN(CCc3c([nH]c4ccccc34)[C@@](C(=O)OC)(c3cc4c(cc3OC)N(C)[C@H]3[C@@](O)(C(=O)OC)[C@H](OC(C)=O)[C@]5(CC)C=CCN6CC[C@]43[C@@H]65)C2)C1 [Compound 100] | 30 | 30 |  |  |  |
| CCC1(NC(=O)c2ccc(C)c(N)c2)CC2CN(CCc3c([nH]c4ccccc34)C(C(=O)OC)(c3cc4c(cc3OC)N(C)C3C(O)(C(=O)OC)C(OC(C)=O)C5(CC)C=CCN6CCC43C65)C2)C1 (stereo not shown) [Compound 101] | 0.6 | 0.7 |  |  |  |
| CCC1(NC(=O)c2ccc(C)c(NC(=O)OC(C)(C)C)c2)CC2CN(CCc3c([nH]c4ccccc34)C(C(=O)OC)(c3cc4c(cc3OC)N(C)C3C(O)(C(=O)OC)C(OC(C)=O)C5(CC)C=CCN6CCC43C65)C2)C1 (stereo not shown) [Compound 102] | 6 | 7.1 |  |  |  |
| CCC1(NC(=O)c2ccc(C)c(NC(C)=O)c2)CC2CN(CCc3c([nH]c4ccccc34)C(C(=O)OC)(c3cc4c(cc3OC)N(C)C3C(O)(C(=O)OC)C(OC(C)=O)C5(CC)C=CCN6CCC43C65)C2)C1 (stereo not shown) [Compound 103] | 5.4 | 4.3 |  |  |  |
| CC[C@]1(NC(=O)c2ccc(N)c(C)c2)C[C@H]2CN(CCc3c([nH]c4ccccc34)[C@@](C(=O)OC)(c3cc4c(cc3OC)N(C)[C@H]3[C@@](O)(C(=O)OC)[C@H](OC(C)=O)[C@]5(CC)C=CCN6CC[C@]43[C@@H]65)C2)C1 [Compound 104] | 0.6 | 0.6 |  |  |  |
| CC[C@]1(NC(=O)c2ccc(NC(=O)OC(C)(C)C)c(C)c2)C[C@H]2CN(CCc3c([nH]c4ccccc34)[C@@](C(=O)OC)(c3cc4c(cc3OC)N(C)[C@H]3[C@@](O)(C(=O)OC)[C@H](OC(C)=O)[C@]5(CC)C=CCN6CC[C@]43[C@@H]65)C2)C1 [Compound 105] | 5.6 | 5.8 |  |  |  |
| CC[C@]1(NC(=O)c2cccc(N3CCOCC3)c2)C[C@H]2CN(CCc3c([nH]c4ccccc34)[C@@](C(=O)OC)(c3cc4c(cc3OC)N(C)[C@H]3[C@@](O)(C(=O)OC)[C@H](OC(C)=O)[C@]5(CC)C=CCN6CC[C@]43[C@@H]65)C2)C1 [Compound 106] | 4.8 | 2.8 |  |  |  |
| CCC1(NC(=O)c2ccc(C)c(NC(=O)c3ccccc3)c2)CC2CN(CCc3c([nH]c4ccccc34)C(C(=O)OC)(c3cc4c(cc3OC)N(C)C3C(O)(C(=O)OC)C(OC(C)=O)C5(CC)C=CCN6CCC43C65)C2)C1 (stereo not shown) [Compound 107] | 30 | 7.6 |  |  |  |
| CCC1(NC(=O)C=Cc2ccccc2)CC2CN(CCc3c([nH]c4ccccc34)C(C(=O)OC)(c3cc4c(cc3OC)N(C)C3C(O)(C(=O)OC)C(OC(C)=O)C5(CC)C=CCN6CCC43C65)C2)C1 (stereo not shown) [Compound 108] |  |  |  | 0.8 | 0.9 |
| CCC1(NC(=O)C=Cc2ccncc2)CC2CN(CCc3c([nH]c4ccccc34)C(C(=O)OC)(c3cc4c(cc3OC)N(C)C3C(O)(C(=O)OC)C(OC(C)=O)C5(CC)C=CCN6CCC43C65)C2)C1 (stereo not shown) [Compound 109] |  |  |  | 0.6 | 0.7 |
| CCC1(NC(=O)C=Cc2cccnc2)CC2CN(CCc3c([nH]c4ccccc34)C(C(=O)OC)(c3cc4c(cc3OC)N(C)C3C(O)(C(=O)OC)C(OC(C)=O)C5(CC)C=CCN6CCC43C65)C2)C1 (stereo not shown) [Compound 110] |  |  |  | 5.9 | 5.7 |
| CC[C@]1(NC(=O)/C=C/c2ccccn2)C[C@H]2CN(CCc3c([nH]c4ccccc34)[C@@](C(=O)OC)(c3cc4c(cc3OC)N(C)[C@H]3[C@@](O)(C(=O)OC)[C@H](OC(C)=O)[C@]5(CC)C=CCN6CC[C@]43[C@@H]65)C2)C1 [Compound 111] |  |  |  | 0.7 | 0.7 |
| CC[C@]1(NC(=O)/C=C/c2ccoc2)C[C@H]2CN(CCc3c([nH]c4ccccc34)[C@@](C(=O)OC)(c3cc4c(cc3OC)N(C)[C@H]3[C@@](O)(C(=O)OC)[C@H](OC(C)=O)[C@]5(CC)C=CCN6CC[C@]43[C@@H]65)C2)C1 [Compound 112] |  |  |  | 0.7 | 0.7 |
| CC[C@]1(NC(=O)/C=C/c2ccco2)C[C@H]2CN(CCc3c([nH]c4ccccc34)[C@@](C(=O)OC)(c3cc4c(cc3OC)N(C)[C@H]3[C@@](O)(C(=O)OC)[C@H](OC(C)=O)[C@]5(CC)C=CCN6CC[C@]43[C@@H]65)C2)C1 [Compound 113] |  |  |  | 1.3 | 1.3 |
